Laboratory results from US8580784B2, “Method for treating a disease related to the glucocorticoid receptor” (Santen Pharmaceutical Co., Ltd., priority 2006, dated 2013).

biological target: T1, Recombinant human GR (Homo sapiens, UniProt P04150); assay: Evaluation test for binding activity to glucocorticoid receptor: receptor competitor assay by fluorescence polarization (Invitrogen GR competitor assay kit, cat No. P2816); conditions: 20 μM test compound solution, 10 μL per well plus 5 μL 4×GS1 and 5 μL 4×GR solution; room temperature 2 to 4 hours; a ratio of 100% or more is indicated by 100%
T1 construct: purchased Invitrogen P2816
T1 sequence (P04150 1-777): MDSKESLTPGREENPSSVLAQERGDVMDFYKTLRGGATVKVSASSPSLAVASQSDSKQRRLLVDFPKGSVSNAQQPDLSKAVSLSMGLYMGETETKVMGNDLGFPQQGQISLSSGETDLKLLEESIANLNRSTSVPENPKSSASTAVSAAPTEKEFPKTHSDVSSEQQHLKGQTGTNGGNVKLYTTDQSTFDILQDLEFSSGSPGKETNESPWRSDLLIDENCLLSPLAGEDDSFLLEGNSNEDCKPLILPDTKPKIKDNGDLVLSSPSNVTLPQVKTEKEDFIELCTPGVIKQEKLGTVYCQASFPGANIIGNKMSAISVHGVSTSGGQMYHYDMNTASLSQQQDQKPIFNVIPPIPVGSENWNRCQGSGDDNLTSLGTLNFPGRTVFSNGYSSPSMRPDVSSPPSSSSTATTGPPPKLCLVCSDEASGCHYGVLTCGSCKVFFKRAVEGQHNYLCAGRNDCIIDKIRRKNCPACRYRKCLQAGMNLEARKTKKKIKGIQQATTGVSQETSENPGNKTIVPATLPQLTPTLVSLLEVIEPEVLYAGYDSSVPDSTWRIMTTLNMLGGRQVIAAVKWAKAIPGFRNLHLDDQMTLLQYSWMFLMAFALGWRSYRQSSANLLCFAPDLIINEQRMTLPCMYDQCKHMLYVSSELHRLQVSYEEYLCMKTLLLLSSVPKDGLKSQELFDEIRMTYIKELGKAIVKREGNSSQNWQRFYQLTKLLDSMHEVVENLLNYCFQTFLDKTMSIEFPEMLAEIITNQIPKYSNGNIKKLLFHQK
Method: A detailed explanation of this matter will be described in the section of “Pharmacological Test” in Examples described below. In order to find the usefulness of the present compound as a pharmaceutical, a glucocorticoid receptor competitor assay was carried out by a fluorescence polarization method by using a glucocorticoid receptor competitor assay kit (manufactured by Invitrogen, cat No. P2816) to study the glucocorticoid receptor binding activity of the present compound.
1. Evaluation Test for Binding Activity to Glucocorticoid Receptor (hereinafter referred to as “GR”)
In order to evaluate a binding activity to GR, a receptor competitor assay was carried out by a fluorescence polarization method. In the assay, a GR competitor assay kit (manufactured by Invitrogen, cat No. P2816) was used, and a procedure was carried out according to the protocol attached to the kit. Hereinafter, the specific method will be described.
(Preparation of Reagents)
GR screening buffer: A buffer containing 10 mM potassium phosphate (pH 7.4), 20 mM sodium molybdate (Na2MoO4), 0.1 mM ethylene diamine tetraacetic acid (EDTA), 5 mM dithiothreitol (DTT), 0.1 mM stabilizing peptide and 2% dimethylsulfoxide was prepared.
4×GS1 solution: Fluormone™ GS1, which is a fluorescent glucocorticoid ligand, was diluted with GR screening buffer, whereby a 4 nM solution was prepared.
4×GR solution: Recombinant human GR was diluted with GR screening buffer, whereby a 16 nM solution was prepared.
(Preparation of Test Compound Solution)
After a test compound was dissolved in dimethylsulfoxide, the resulting solution was diluted with GR screening buffer, whereby a 20 μM test compound solution was prepared.
(Test Method and Measurement Method)
1) The test compound solution was added in an amount of 10 μL into each well of a 384-well plate, and then, 4×GS1 solution and 4×GR solution were added in an amount of 5 μL into each well, respectively.
2) The plate was incubated in a dark place at room temperature for 2 to 4 hours.
3) By using a multimode plate reader, Analyst™ HT (manufactured by LJL Biosystems), fluorescence polarization of each well was measured. As the blank, a well containing GR screening buffer in place of the test compound and 4×GS1 solution was used.
4) The same procedure as that in the above 1) to 3) was carried out except that GR screening buffer was used in place of the test compound solution, and the obtained result was taken as the negative control.
5) The same procedure as that in the above 1) to 3) was carried out except that 2 mM dexamethasone was used in place of the test compound solution, and the obtained result was taken as the positive control.
(Calculation Equation of GR Binding Ratio)
A GR binding ratio (%) was calculated from the following equation. GR binding ratio(%)=100×[1−(fluorescence polarization of test compound solution−fluorescence polarization of positive control solution)/(fluorescence polarization of negative control solution−fluorescence polarization of positive control solution)] (Test Results and Discussion)

| SMILES | inhibition at 20 µM (stock) [%] | inhibition at 20 µM [%] |
| --- | --- | --- |
| COc1ccccc1NCc1c(-c2ccc(OC(=O)c3ccco3)cc2OC)ccc2c1C(C)=CC(C)(C)N2 [Compound 1-1, 6-[4-(Furan-2-ylcarbonyloxy)-2-methoxyphenyl]-5-(2-methoxyphenylaminomethyl)-2,2,4-trimethyl-1,2-dihydroquioline] | 92 |  |
| COc1ccccc1NCc1c(-c2ccc(OC(=O)c3cccnc3C)cc2OC)ccc2c1C(C)=CC(C)(C)N2 [Compound 1-2, 6-[2-Methoxy-4-(2-methylpyridin-3-ylcarbonyloxy)phenyl]-5-(2-methoxyphenylaminomethyl)-2,2,4-trimethyl-1,2-dihydroquioline] | 100 |  |
| COc1ccccc1NCc1c(-c2ccc(OC(=O)c3ccccc3)cc2OC)ccc2c1C(C)=CC(C)(C)N2 [Compound 1-3, 6-(4-Benzoyloxy-2-methoxyphenyl)-5-(2-methoxyphenylaminomethyl)-2,2,4-trimethyl-1,2-dihydroquioline] | 95 |  |
| COc1ccccc1NCc1c(-c2ccc(OC(=O)c3ccccc3OC)cc2OC)ccc2c1C(C)=CC(C)(C)N2 [Compound 1-4, 6-[2-Methoxy-4-(2-methoxybenzoyloxy)phenyl]-5-(2-methoxyphenylaminomethyl)-2,2,4-trimethyl-1,2-dihydroquinoline] | 95 |  |
| COc1ccccc1NCc1c(-c2ccc(OC(=O)c3ccccc3C)cc2OC)ccc2c1C(C)=CC(C)(C)N2 [Compound 1-5, 6-[2-Methoxy-4-(2-methylbenzoyloxy)phenyl]-5-(2-methoxyphenylaminomethyl)-2,2,4-trimethyl-1,2-dihydroquinoline] | 93 |  |
| COc1ccccc1NCc1c(-c2ccc(OC(=O)c3ccoc3)cc2OC)ccc2c1C(C)=CC(C)(C)N2 [Compound 1-6, 6-[4-(Furan-3-ylcarbonyloxy)-2-methoxyphenyl]-5-(2-methoxyphenylaminomethyl)-2,2,4-trimethyl-1,2-dihydroquinoline] | 97 |  |
| COc1ccccc1NCc1c(-c2ccc(OC(=O)c3ccsc3)cc2OC)ccc2c1C(C)=CC(C)(C)N2 [Compound 1-7, 5-(2-Methoxyphenylaminomethyl)-6-[2-methoxy-4-(thiophen-3-ylcarbonyloxy)phenyl]-2,2,4-trimethyl-1,2-dihydroquinoline] | 95 |  |
| COc1ccccc1NCc1c(-c2ccc(OC(=O)c3cccnc3)cc2OC)ccc2c1C(C)=CC(C)(C)N2 [Compound 1-8, 5-(2-Methoxyphenylaminomethyl)-6-[2-methoxy-4-(pyridin-3-ylcarbonyloxy)phenyl]-2,2,4-trimethyl-1,2-dihydroquinoline] |  | 98 |
| COc1cc(OC(=O)c2ccccc2Cl)ccc1-c1ccc2c(c1CNc1cc(F)ccc1C)C(C)=CC(C)(C)N2 [Compound 1-9, 6-[4-(2-Chlorobenzoyloxy)-2-methoxyphenyl]-5-(5-fluoro-2-methylphenylaminomethyl)-2,2,4-trimethyl-1,2-dihydroquinoline] | 90 |  |
| COc1ccccc1NCc1c(-c2ccc(OC(=O)c3ccccc3Cl)cc2OC)ccc2c1C(C)=CC(C)(C)N2 [Compound 1-10, 6-[4-(2-Chlorobenzoyloxy)-2-methoxyphenyl]-5-(2-methoxyphenylaminomethyl)-2,2,4-trimethyl-1,2-dihydroquinoline] | 93 |  |
| COc1ccccc1NCc1c(-c2ccc(OC(=O)c3ccccc3F)cc2OC)ccc2c1C(C)=CC(C)(C)N2 [Compound 1-12, 6-[4-(2-Fluorobenzoyloxy)-2-methoxyphenyl]-5-(2-methoxyphenylaminomethyl)-2,2,4-trimethyl-1,2-dihydroquinoline] | 99 |  |
| COc1ccccc1NCc1c(-c2ccc(OC(=O)c3ccncc3)cc2OC)ccc2c1C(C)=CC(C)(C)N2 [Compound 1-13, 5-(2-Methoxyphenylaminomethyl)-6-[2-methoxy-4-(pyridin-4-ylcarbonyloxy)phenyl]-2,2,4-trimethyl-1,2-dihydroquinoline] | 100 |  |
| COc1ccccc1NCc1c(-c2ccc(OC(=O)C(C)C)cc2OC)ccc2c1C(C)=CC(C)(C)N2 [Compound 1-14, 6-(4-Isopropylcarbonyloxy-2-methoxyphenyl)-5-(2-methoxyphenylaminomethyl)-2,2,4-trimethyl-1,2-dihydroquinoline] | 99 |  |
| COc1ccccc1NCc1c(-c2ccc(OC(=O)c3cccs3)cc2OC)ccc2c1C(C)=CC(C)(C)N2 [Compound 1-15, 5-(2-Methoxyphenylaminomethyl)-6-[2-methoxy-4-(thiophen-2-ylcarbonyloxy)phenyl]-2,2,4-trimethyl-1,2-dihydroquinoline] | 99 |  |
| COc1cc(OC(=O)c2cccnc2)ccc1-c1ccc2c(c1CNc1cc(F)ccc1C)C(C)=CC(C)(C)N2 [Compound 1-16, 5-(5-Fluoro-2-methylphenylaminomethyl)-6-[2-methoxy-4-(pyridin-3-ylcarbonyloxy)phenyl]-2,2,4-trimethyl-1,2-dihydroquinoline] | 100 |  |
| COc1cc(OC(=O)c2ccco2)ccc1-c1ccc2c(c1CNc1cc(F)ccc1C)C(C)=CC(C)(C)N2 [Compound 1-17, 5-(5-Fluoro-2-methylphenylaminomethyl)-6-[4-(furan-2-ylcarbonyloxy)-2-methoxyphenyl]-2,2,4-trimethyl-1,2-dihydroquinoline] | 99 |  |
| COC(=O)c1cccc(C(=O)Oc2ccc(-c3ccc4c(c3CNc3ccccc3OC)C(C)=CC(C)(C)N4)c(OC)c2)c1 [Compound 1-18, 6-[2-Methoxy-4-(3-methoxycarbonylbenzoyloxy)phenyl]-5-(2-methoxyphenylaminomethyl)-2,2,4-trimethyl-1,2-dihydroquinoline] | 86 |  |
| COc1ccc(C(=O)Oc2ccc(-c3ccc4c(c3CNc3ccccc3OC)C(C)=CC(C)(C)N4)c(OC)c2)cc1 [Compound 1-22, 6-[2-Methoxy-4-(4-methoxybenzoyloxy)phenyl]-5-(2-methoxyphenylaminomethyl)-2,2,4-trimethyl-1,2-dihydroquinoline] | 81 |  |
| COc1ccccc1NCc1c(-c2ccc(OC(=O)c3ccc(F)cc3)cc2OC)ccc2c1C(C)=CC(C)(C)N2 [Compound 1-23, 6-[4-(4-Fluorobenzoyloxy)-2-methoxyphenyl]-5-(2-methoxyphenylaminomethyl)-2,2,4-trimethyl-1,2-dihydroquinoline] | 86 |  |
| COc1ccccc1NCc1c(-c2ccc(OC(=O)c3ccccc3SC)cc2OC)ccc2c1C(C)=CC(C)(C)N2 [Compound 1-26, 6-[2-Methoxy-4-(2-methylthiobenzoyloxy)phenyl]-5-(2-methoxyphenylaminomethyl)-2,2,4-trimethyl-1,2-dihydroquinoline] | 90 |  |
| COc1ccccc1NCc1c(-c2ccc(OC(=O)c3cccc(C(C)=O)c3)cc2OC)ccc2c1C(C)=CC(C)(C)N2 [Compound 1-27, 6-[4-(3-Acetylbenzoyloxy)-2-methoxyphenyl]-5-(2-methoxyphenylaminomethyl)-2,2,4-trimethyl-1,2-dihydroquinoline] | 87 |  |
